The term GI50 denotes the concentration that inhibits growth by half. The term TGI denotes the concentration giving total growth inhibition. Low readings indicate greater sensitivity of the cells, high ones lower sensitivity of the cells.

Nine compounds from PubChem BioAssay (NCI) can be followed below.

Each structure is given as a SMILES string.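 Assay format: 96-well plates, 48-hour exposure. Here, GI50 denotes the concentration required for 50% inhibition of growth. At the TGI there is no net growth.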

Test systems include ACHN renal; HL-60(TB) leukemia; HS 578T breast; MCF7 breast; MOLT-4 leukemia; NCI-H23 lung; NCI/ADR-RES ovarian; SF-539 CNS; SR leukemia; UACC-62 melanoma.
Holding throughout (experiment): DTP human tumour cell line panel, 48 h

In the case of `CC[C@H](CC#N)OC(=O)N[C@@H](C)c1cccc(NC(=O)Nc2ccc(-c3cnco3)c(OC)c2)c1`, the GI50 in the experiment on ACHN renal is 0.0872 µM; in the experiment with HL-60(TB) leukemia, 0.184 µM; with HS 578T breast, 1.16 µM; in the experiment with MCF7 breast it was 0.0458 µM; in the experiment on MOLT-4 leukemia it was 0.0403 µM; in the experiment on NCI-H23 lung it was 0.16 µM. Also, the GI50 in the experiment on NCI/ADR-RES ovarian was 4.87 µM; with SF-539 CNS, 0.0386 µM; in the experiment with SR leukemia, 0.0289 µM; with UACC-62 melanoma, 0.141 µM. Also, the TGI in the experiment with ACHN renal was 45.1 µM; with HL-60(TB) leukemia, 38.5 µM; in the experiment on HS 578T breast, above 51.6 µM; in the experiment with MCF7 breast, 18.2 µM; in the experiment with MOLT-4 leukemia it was 13.8 µM; with NCI-H23 lung it was 43.2 µM. In addition, the TGI in the experiment with NCI/ADR-RES ovarian worked out at 62.2 µM; in the experiment on SF-539 CNS it was 28 µM; in the experiment on SR leukemia it was 4.3 µM; in the experiment with UACC-62 melanoma, 24.5 µM.
Regarding `C=C(C)C(=O)O[C@H]1[C@H]2[C@H](OC(=O)[C@H]2C)[C@H](O)[C@@H](C)[C@@H]2C=CC(=O)[C@]21C`, the TGI with ACHN renal worked out at 12.7 µM; with HL-60(TB) leukemia, 2.86 µM; with HS 578T breast, 32.5 µM; in the experiment on MCF7 breast, 15.5 µM; with MOLT-4 leukemia, 7.52 µM; in the experiment on NCI-H23 lung it was 15 µM. Moreover, the TGI with NCI/ADR-RES ovarian stood at 9.61 µM; in the experiment with SF-539 CNS it was 16.5 µM; in the experiment on SR leukemia, 5.39 µM; in the experiment with UACC-62 melanoma it was 3.84 µM.
`CC(C)NC(=O)OCCS(=O)c1c(Cl)c(Cl)nn1C` (stereo not given): the TGI with ACHN renal, in the experiment on HL-60(TB) leukemia, in the experiment with HS 578T breast, with MCF7 breast, in the experiment with MOLT-4 leukemia and with NCI-H23 lung was above 100 µM each time. The TGI with NCI/ADR-RES ovarian was above 100 µM; in the experiment on SF-539 CNS, above 100 µM; in the experiment with SR leukemia, above 100 µM; with UACC-62 melanoma it was 67.7 µM.
In the case of `CC(CNC(Cc1ccccc1)c1ccccc1)NC(Cc1ccccc1)c1ccccc1` (stereo not given), the GI50 with ACHN renal is 2.93 µM; in the experiment on HL-60(TB) leukemia, 2 µM; in the experiment with HS 578T breast it was 2.64 µM; in the experiment with MCF7 breast, 2.08 µM; in the experiment on MOLT-4 leukemia, 2.06 µM; in the experiment on NCI-H23 lung, 1.94 µM. The GI50 was 1.83 µM in the experiment on NCI/ADR-RES ovarian, 1.93 µM in the experiment on SF-539 CNS, 1.84 µM with SR leukemia and 1.8 µM with UACC-62 melanoma. In addition, the TGI with ACHN renal was found to be 8.85 µM; with HL-60(TB) leukemia, 4.51 µM; in the experiment with HS 578T breast, 8.27 µM; with MCF7 breast, 5.16 µM; in the experiment with MOLT-4 leukemia, 6.03 µM; in the experiment with NCI-H23 lung, 4.46 µM. Further, the concentration for total growth inhibition (TGI) worked out at 4.17 µM in the experiment with NCI/ADR-RES ovarian, 3.69 µM in the experiment on SF-539 CNS, 4.49 µM in the experiment with SR leukemia and 3.8 µM in the experiment with UACC-62 melanoma.
On to `Cn1ccnc1C(=O)/C=C/c1ccc(CC(=O)Nc2ccccc2)cc1`, for which the GI50 in the experiment on ACHN renal is 5.24 µM; with HL-60(TB) leukemia, 1.57 µM; with HS 578T breast, 14.2 µM; in the experiment with MCF7 breast it was 1.13 µM; with MOLT-4 leukemia it was 4.3 µM; in the experiment with NCI-H23 lung it was 3.24 µM. Moreover, the GI50 in the experiment with NCI/ADR-RES ovarian was 7.54 µM; with SF-539 CNS, 2.43 µM; in the experiment on SR leukemia it was 1.16 µM; in the experiment on UACC-62 melanoma, 4.13 µM. Further, the TGI was 15.6 µM with ACHN renal; 9.35 µM in the experiment with HL-60(TB) leukemia; above 25 µM with HS 578T breast; 10.3 µM in the experiment with MCF7 breast; above 25 µM with MOLT-4 leukemia; 11.3 µM in the experiment with NCI-H23 lung. Further, the total growth inhibition concentration (TGI) is above 25 µM with NCI/ADR-RES ovarian, 7.52 µM in the experiment with SF-539 CNS, 18.9 µM in the experiment on SR leukemia and 9.95 µM in the experiment on UACC-62 melanoma.
With `Fc1cccc(COc2ccc(Nc3ncnc4cc(-c5ccc[nH]5)sc34)cc2Cl)c1`, the GI50 is 2.68 µM in the experiment with ACHN renal; 0.354 µM in the experiment on HL-60(TB) leukemia; 4.53 µM in the experiment with HS 578T breast; 0.0802 µM with MCF7 breast; 2.59 µM in the experiment on MOLT-4 leukemia; 7.22 µM with NCI-H23 lung. For the same compound, the GI50 in the experiment with NCI/ADR-RES ovarian was 3.29 µM; with SF-539 CNS, 0.931 µM; in the experiment with SR leukemia, 13.6 µM; in the experiment on UACC-62 melanoma, 5.77 µM. Besides, the TGI with ACHN renal was above 16.8 µM; in the experiment with HL-60(TB) leukemia it was 3.22 µM; in the experiment with HS 578T breast it was 21.2 µM; in the experiment with MCF7 breast it was 2.76 µM; with MOLT-4 leukemia, above 25 µM; in the experiment on NCI-H23 lung, above 25 µM. Moreover, the total growth inhibition concentration (TGI) is above 25 µM in the experiment with NCI/ADR-RES ovarian, 4.81 µM with SF-539 CNS, above 25 µM in the experiment with SR leukemia and above 22.8 µM in the experiment with UACC-62 melanoma.
As to `CC1OC2CC(=O)OC2C2=C1C(=O)c1c(O)c3c(c(O)c1C2=O)C1CC(O)C3(O)C(C)O1` (stereo not given), the GI50 is 0.555 µM with ACHN renal; 0.234 µM with HL-60(TB) leukemia; 0.429 µM in the experiment on HS 578T breast; 0.126 µM with MCF7 breast; 0.244 µM in the experiment on MOLT-4 leukemia; 0.414 µM in the experiment on NCI-H23 lung. In addition, the GI50 in the experiment with NCI/ADR-RES ovarian is 0.273 µM; with SF-539 CNS it was 0.458 µM; with SR leukemia, 0.344 µM; in the experiment with UACC-62 melanoma it was 0.734 µM. Further, the TGI in the experiment with ACHN renal was determined as 10.4 µM; in the experiment with HL-60(TB) leukemia, 1.06 µM; with HS 578T breast it was 2.92 µM; in the experiment on MCF7 breast, 0.366 µM; in the experiment with MOLT-4 leukemia it was 0.64 µM; in the experiment with NCI-H23 lung, 1.55 µM. For the same compound, the TGI is 0.917 µM with NCI/ADR-RES ovarian, 1.37 µM in the experiment with SF-539 CNS, 5.86 µM in the experiment on SR leukemia and 2.13 µM in the experiment with UACC-62 melanoma.
Consider `COC(=O)CNC(=O)[C@@H](OC)[C@@H]1Cc2cc3cc(OC4CC(OC5CC(O)C(O)C(C)O5)C(O)C(C)O4)c(C)c(O)c3c(O)c2C(=O)[C@H]1OC1CC(OC2CC(OC3CC(C)(O)C(O)C(C)O3)C(O)C(C)O2)C(O)C(C)O1` (stereo not given in full), for which the GI50 was 0.19 µM in the experiment with ACHN renal; 1.08 µM in the experiment on HL-60(TB) leukemia; 0.123 µM in the experiment with HS 578T breast; 0.0546 µM in the experiment with MCF7 breast; 0.198 µM in the experiment with MOLT-4 leukemia; 0.15 µM in the experiment with NCI-H23 lung. In addition, the GI50 in the experiment on NCI/ADR-RES ovarian was 48.5 µM; in the experiment with SF-539 CNS, 0.141 µM; with SR leukemia, 0.0298 µM; with UACC-62 melanoma it was 0.0536 µM. Also, the TGI was 6.94 µM in the experiment with ACHN renal; 49.1 µM in the experiment with HL-60(TB) leukemia; 2.64 µM in the experiment with HS 578T breast; above 50 µM with MCF7 breast; 3.35 µM in the experiment on MOLT-4 leukemia; above 50 µM in the experiment on NCI-H23 lung. For the same compound, the TGI in the experiment on NCI/ADR-RES ovarian is above 50 µM; in the experiment with SF-539 CNS, 2.3 µM; with SR leukemia, above 50 µM; in the experiment on UACC-62 melanoma, 0.26 µM.
On to `Cc1cc2c3ccccc3n(C)c2c2c1C(=O)C=CC2=O`, for which the TGI was 41.7 µM in the experiment on ACHN renal; above 68 µM with HL-60(TB) leukemia; 55.2 µM in the experiment on HS 578T breast; 17.5 µM in the experiment on MCF7 breast; 46.3 µM in the experiment on MOLT-4 leukemia; 27.4 µM in the experiment on NCI-H23 lung. For the same compound, the TGI in the experiment with NCI/ADR-RES ovarian is above 100 µM; with SF-539 CNS, 41.9 µM; in the experiment on SR leukemia it was 38.9 µM; with UACC-62 melanoma, 32.4 µM.
